From patent publication US12673975B2, “Cyclic peptide, cell scaffold material, cell separating material, and medium” (FUJIFILM Corporation, priority 2019, dated 2026)
Read-outs that look alike come from different tables or passages of the source. Starred links: 1 amine or outer side, 2 acyl side, 3 side chain; linkers in the order of their positions; H or OH if unused. Positions of bridges follow the written chain, without caps; N, C: chain ends. Non-standard residues stand in square brackets, D forms with d. Residues, ends and D or L forms follow the SMILES beside them. Pen = CC(C)(S)[C@H](N)C(=O)O; hCys = N[C@@H](CCS)C(=O)O; Orn = NCCC[C@H](N)C(=O)O; Dab = NCC[C@H](N)C(=O)O; X1 = O=C(C[*:2])[*:1]; X2 = O=C(C[*:1])[*:2]

Assays:
human integrin αvβ5 = human integrin αvβ5 (Homo sapiens, UniProt P06756+P18084); assay: Evaluation of integrin binding property (surface plasmon resonance, Biacore 3000, immobilized cyclic peptide)
human integrin αvβ5, sequence (P06756 31-1048): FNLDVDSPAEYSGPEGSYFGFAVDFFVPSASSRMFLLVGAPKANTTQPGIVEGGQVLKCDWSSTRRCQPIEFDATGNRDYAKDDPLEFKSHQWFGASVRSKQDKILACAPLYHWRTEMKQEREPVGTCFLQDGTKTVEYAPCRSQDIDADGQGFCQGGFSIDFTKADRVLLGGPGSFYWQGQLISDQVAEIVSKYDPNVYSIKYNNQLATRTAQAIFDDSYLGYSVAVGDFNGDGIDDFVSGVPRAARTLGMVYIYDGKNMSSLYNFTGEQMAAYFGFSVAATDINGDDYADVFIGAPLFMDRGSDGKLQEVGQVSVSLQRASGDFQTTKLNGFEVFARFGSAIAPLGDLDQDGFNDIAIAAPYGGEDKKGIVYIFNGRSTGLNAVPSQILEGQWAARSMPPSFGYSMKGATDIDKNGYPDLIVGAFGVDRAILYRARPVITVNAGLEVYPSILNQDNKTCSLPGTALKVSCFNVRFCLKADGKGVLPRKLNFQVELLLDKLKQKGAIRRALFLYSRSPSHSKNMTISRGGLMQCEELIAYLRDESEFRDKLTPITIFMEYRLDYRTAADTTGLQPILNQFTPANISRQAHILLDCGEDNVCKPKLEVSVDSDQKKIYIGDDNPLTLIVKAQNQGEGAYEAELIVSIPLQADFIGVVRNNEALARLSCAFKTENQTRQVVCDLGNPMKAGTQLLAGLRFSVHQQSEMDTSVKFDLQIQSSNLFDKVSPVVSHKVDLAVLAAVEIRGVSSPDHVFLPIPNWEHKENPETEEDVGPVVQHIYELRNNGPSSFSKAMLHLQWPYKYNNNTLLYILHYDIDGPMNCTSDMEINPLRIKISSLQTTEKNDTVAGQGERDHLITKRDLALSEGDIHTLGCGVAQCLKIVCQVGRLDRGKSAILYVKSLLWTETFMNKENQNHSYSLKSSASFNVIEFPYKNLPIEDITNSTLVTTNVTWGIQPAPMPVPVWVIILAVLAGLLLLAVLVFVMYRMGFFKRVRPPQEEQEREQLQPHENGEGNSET
human integrin αvβ5, sequence (P18084 24-799): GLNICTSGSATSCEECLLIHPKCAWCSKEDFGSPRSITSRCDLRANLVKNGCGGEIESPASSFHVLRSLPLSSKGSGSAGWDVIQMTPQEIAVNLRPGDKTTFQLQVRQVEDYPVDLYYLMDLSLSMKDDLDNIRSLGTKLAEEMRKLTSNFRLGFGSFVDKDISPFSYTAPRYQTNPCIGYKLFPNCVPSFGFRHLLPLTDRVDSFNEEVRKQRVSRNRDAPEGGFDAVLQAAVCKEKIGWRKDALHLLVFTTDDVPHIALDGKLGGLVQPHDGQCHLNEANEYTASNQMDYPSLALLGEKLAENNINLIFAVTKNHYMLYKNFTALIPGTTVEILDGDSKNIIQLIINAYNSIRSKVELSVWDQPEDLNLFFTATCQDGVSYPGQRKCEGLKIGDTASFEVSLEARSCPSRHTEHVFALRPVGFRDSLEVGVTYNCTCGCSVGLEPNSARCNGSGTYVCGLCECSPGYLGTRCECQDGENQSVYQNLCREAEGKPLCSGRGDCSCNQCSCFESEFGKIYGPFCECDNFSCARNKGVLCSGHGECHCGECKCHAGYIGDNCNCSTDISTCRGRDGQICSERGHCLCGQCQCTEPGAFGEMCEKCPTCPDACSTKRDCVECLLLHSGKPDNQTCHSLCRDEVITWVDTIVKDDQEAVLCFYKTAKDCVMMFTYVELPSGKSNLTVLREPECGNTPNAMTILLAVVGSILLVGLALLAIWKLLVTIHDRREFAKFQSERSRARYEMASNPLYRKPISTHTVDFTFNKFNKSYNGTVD
Experimental: A commercially available CMS (a carboxymethyl dextran introduction type, manufactured by GE Healthcare) sensor chip was set in Biacore 3000, which is a surface plasmon resonance apparatus manufactured by GE Healthcare, the sensor was stabilized at a flow rate of 10 μL/min of a HEPES (4-(2-hydroxyethyl)-1-piperazineethanesulfonic acid) buffer solution (20 mM HEPES-HCl, 150 mM NaCl, pH 7.4) for surface plasmon resonance (SPR), and 70 μL of a mixed aqueous solution of 0.2 M 1-(3-dimethylaminopropyl)-3-ethylcarbodiimide (EDC) and 0.04 M N-hydroxysuccinimide (NHS) was added thereto. Here, the concentration unit M represents mol/L, and the same applies hereinafter. Then, 20 μL of the sample solution of each of the above cyclic peptides diluted to 0.2 g/L with the HEPES buffer solution was supplied to the sensor chip, blocking treatment was subsequently carried out with an ethanolamine solution, and washing was carried out with a sodium hydroxide aqueous solution, whereby immobilization was carried out. However, only for the cyclic peptides 125, 126, and 127, in which the number of lysine residues having an amino group as the immobilizing functional group was zero, the amount of the sample solution to be supplied to the sensor chip was set to 500 μL instead of 20 μL. Further, 70 μL of the mixed aqueous solution of 0.2 M EDC and 0.04 M NHS was added to another flow channel of the same sensor chip without immobilizing the sample, and then blocking treatment and washing treatment were carried out. Hereinafter, the obtained immobilization-treated sensor chip is referred to as an “immobilization-treated sensor chip A”.
After adding human integrin αvβ5 for 10 minutes at 25° C., which was diluted to 30 nM using a HEPES buffer solution to which magnesium chloride was added to 5 mM, in each flow channel of the immobilization-treated sensor chip A prepared in (1) above, the same HEPES buffer solution (containing 5 mM magnesium chloride) was allowed to flow as a running buffer for 30 minutes, and measurement was carried out with Biacore 3000. Then, a regeneration treatment of removing human integrin αvβ5 was carried out by allowing a 0.5 M EDTA aqueous solution to flow through each flow channel for 10 minutes. Further, the above-described measurement process consisting of adding integrin for 10 minutes, allowing a running buffer to flow for 30 minutes, carrying out measurement with Biacore 3000, and carrying out regeneration treatment with 0.5 M EDTA aqueous solution was carried out in the same manner for 100 nM human integrin αvβ5, 300 nM human integrin αvβ5, and 1,000 nM human integrin αvβ5. Dissociation constant between the cyclic peptide and human integrin αvβ5 was calculated from the difference between the value measured by Biacore 3000 in the flow channel immobilized with the cyclic peptide and the value measured by Biacore 3000 in the flow channel unimmobilized with the cyclic peptide, in a case where each concentration of human integrin αvβ5 was allowed to flow, and the integrin binding property was evaluated according to the following evaluation standards. It is preferable that the evaluation result satisfies the evaluation standard A, B, or C.

[1] = Evaluation of molecule stability (alkali treatment, residual rate by LC/MS); format: physicochemical; settings: for Performance evaluation: Stability (residual rate of cyclic peptide after alkali treatment): 500 μM peptide aqueous solution plus equivalent of 1 M sodium hydroxide, 15° C., 3 hours, LC/MS peak area; for Stability (molecule stability, residual rate of the cyclic peptide rank): alkali treatment, residual rate by LC/MS
Experimental: The molecule stability of the cyclic peptide was evaluated by analyzing the alkali-treated cyclic peptide aqueous solution by liquid chromatography mass spectroscopy (LC/MS).
The alkali treatment was carried out by the following method. A 500 μM cyclic peptide aqueous solution was prepared, an equivalent of 1 M sodium hydroxide aqueous solution was added to this aqueous solution, and the resultant mixture was incubated at 15° C. for 3 hours to obtain an alkali-treated cyclic peptide aqueous solution. The cyclic peptide residual rate was calculated by setting the total area of all peaks of the cyclic peptide before alkali treatment in LC/MS to 100% and determining the proportion of the total area of all peaks in LC/MS of the alkali-treated cyclic peptide aqueous solution, and the molecule stability was evaluated according to the following evaluation standards. It is preferable that the evaluation result satisfies the evaluation standard A, B, or C.
The conditions of the LC/MS used for the evaluation of molecule stability were set as follows. • LC apparatus: Prominence series (pump, column oven, autosampler, detector) (manufactured by Shimadzu Corporation) • MS detector: LC/MS2010EV (manufactured by Shimadzu Corporation) • Column: Cadenza CD-C18, inner diameter 2.0 mm×length 250 mm, particle size: 3 μm (manufactured by Imtakt Corporation) • Eluent A: a solution (pH 3) containing 10 mM ammonium formate as a solute, where the solvent is 100% water. • Eluent B: a solution (pH 3) containing 10 mM ammonium formate as a solute, where the solvent is acetonitrile/water=90/10. • Flow rate: 0.2 mL/min • Injection volume: 4 μL • Gradient: 0% to 30%: Eluent B (0 to 30 minutes), 100%: Eluent B (30 to 40 minutes), 0%: Eluent B (40 to 60 minutes) • Column temperature: 45° C. • Ionization method: electrospray ionization (ESI) positive, ESI negative

[2] = SPR, 25° C., HEPES buffer with 5 mM magnesium chloride, integrin 30-1,000 nM, read-out: Performance evaluation: Binding activity (dissociation constant between the cyclic peptide and human integrin αvβ5)
[3] = surface plasmon resonance, immobilized cyclic peptide, human integrin αvβ5, read-out: Binding activity (integrin binding property, dissociation constant rank)

Row | Kd (human integrin αvβ5; [2]) [nM] | Kd (human integrin αvβ5; [3]) [nM] | Structure (SMILES) | Performance evaluation: Stability (residual rate of cyclic peptide after alkali treatment) [1] | Stability (molecule stability, residual rate of the cyclic peptide rank) [1]
1 | < 50 |  | CC[C@H](C)[C@@H]1NC(=O)[C@@H](NC(=O)[C@H](C)NC(=O)[C@H](CCCCN)NC(=O)[C@H](CCCCN)NC(=O)[C@@H](N)CCCCN)CCSCC(=O)NCC[C@@H](C(=O)N[C@@H](C)C(=O)O)NC(=O)[C@H](C)NC(=O)[C@H](Cc2ccccc2)NC(=O)[C@H]([C@@H](C)O)NC(=O)[C@H](CC(=O)O)NC(=O)CNC(=O)[C@H](CCCNC(=N)N)NC(=O)[C@@H]2CCCN2C1=O [Cyclic peptide 87, KKKA-(Hcy)-IPRGDTFA(Dab(acetyl))A] (H-KKKA[hCys]IPRGDTFA[Dab]A-OH; linker 5-14 via X2) | A (The residual rate of the cyclic peptide is 70% or more.) | 
2 | 100 to 200 |  | C[C@H](NC(=O)[C@H](CCCCN)NC(=O)[C@H](CCCCN)NC(=O)[C@@H](N)CCCCN)C(=O)N[C@H]1CCSCC(=O)NCC[C@@H](C(=O)N[C@@H](CC(=O)O)C(=O)O)NC(=O)[C@H](CCCNC(=N)N)NC(=O)[C@H](Cc2ccc(O)cc2)NC(=O)[C@H](CO)NC(=O)[C@H](CC(=O)O)NC(=O)CNC(=O)[C@H](CCCNC(=N)N)NC(=O)[C@@H]2CCCN2C(=O)[C@H](CCC(=O)O)NC1=O [Cyclic peptide 33, KKKA-(Hcy)-EPRGDSYR(Dab(acetyl))D] (H-KKKA[hCys]EPRGDSYR[Dab]D-OH; linker 5-14 via X2) | A (The residual rate of the cyclic peptide is 70% or more.) | 
3 |  | 50 to 100 | CC[C@H](C)[C@@H]1NC(=O)[C@@H](NC(=O)CNC(=O)[C@H](CCCCN)NC(=O)[C@H](CCCCN)NC(=O)[C@@H](N)CCCCN)C(C)(C)SCC(=O)NCCCC[C@@H](C(=O)N[C@@H](C)C(=O)O)NC(=O)[C@H](CCCNC(=N)N)NC(=O)[C@H](Cc2ccccc2)NC(=O)[C@H]([C@@H](C)O)NC(=O)[C@H](CC(=O)O)NC(=O)CNC(=O)[C@H](CCCNC(=N)N)NC(=O)[C@@H]2CCCN2C1=O [Cyclic peptide 131, KKKG-(Pen)-IPRGDTFR(Lys(acetyl))A] (H-KKKG[Pen]IPRGDTFRKA-OH; linker 5-14 via X2) |  | A (The residual rate of the cyclic peptide is 70% or more.)
4 |  | < 50 | CC[C@H](C)[C@@H]1NC(=O)[C@@H](NC(=O)CNC(=O)[C@H](CCCCN)NC(=O)[C@H](CCCCN)NC(=O)[C@@H](N)CCCCN)CCCNC(=O)CSCC[C@@H](C(=O)N[C@@H](C)C(=O)O)NC(=O)[C@H](CCCNC(=N)N)NC(=O)[C@H](Cc2ccccc2)NC(=O)[C@H]([C@@H](C)O)NC(=O)[C@H](CC(=O)O)NC(=O)CNC(=O)[C@H](CCCNC(=N)N)NC(=O)[C@@H]2CCCN2C1=O [Cyclic peptide 119, KKKG(Orn(acetyl))IPRGDTFR-(Hcy)-A] (H-KKKG[Orn]IPRGDTFR[hCys]A-OH; linker 5-14 via X1) |  | A (The residual rate of the cyclic peptide is 70% or more.)
5 | < 50 |  | CC(C)[C@@H]1NC(=O)[C@@H](NC(=O)CNC(=O)[C@H](CCCCN)NC(=O)[C@H](CCCCN)NC(=O)[C@@H](N)CCCCN)CCSCC(=O)NCC[C@@H](C(=O)NCC(=O)O)NC(=O)[C@H](C)NC(=O)[C@H](Cc2ccccc2)NC(=O)[C@H](CO)NC(=O)[C@H](CC(=O)O)NC(=O)CNC(=O)[C@H](CCCNC(=N)N)NC(=O)[C@@H]2CCCN2C1=O [Cyclic peptide 99, KKKG-(Hcy)-VPRGDSFA(Dab(acetyl))G] (H-KKKG[hCys]VPRGDSFA[Dab]G-OH; linker 5-14 via X2) | A (The residual rate of the cyclic peptide is 70% or more.) | 
6 | 50 to 100 |  | CC[C@H](C)[C@@H]1NC(=O)[C@@H](NC(=O)[C@H](CCCCN)NC(=O)[C@H](CCCCN)NC(=O)[C@@H](N)CCCCN)CCSCC(=O)NCC[C@@H](C(=O)O)NC(=O)[C@H](Cc2ccccc2)NC(=O)[C@H](C(C)C)NC(=O)[C@H](CC(=O)O)NC(=O)CNC(=O)[C@H](CCCNC(=N)N)NC(=O)[C@@H]2CCCN2C1=O [Cyclic peptide 65, KKK-(Hcy)-IPRGDVF(Dab(acetyl))] (H-KKK[hCys]IPRGDVF[Dab]-OH; linker 4-12 via X2) | A (The residual rate of the cyclic peptide is 70% or more.) | 
7 | < 50 |  | CC[C@H](C)[C@@H]1NC(=O)[C@@H](NC(=O)CNC(=O)[C@H](CCCCN)NC(=O)[C@H](CCCCN)NC(=O)[C@@H](N)CCCCN)CCSCC(=O)NCC[C@@H](C(=O)O)NC(=O)[C@H](CCCNC(=N)N)NC(=O)[C@H](Cc2ccccc2)NC(=O)[C@H]([C@@H](C)O)NC(=O)[C@H](CC(=O)O)NC(=O)CNC(=O)[C@H](CCCNC(=N)N)NC(=O)[C@@H]2CCCN2C1=O [Cyclic peptide 59, KKKG-(Hcy)-IPRGDTFR(Dab(acetyl))] (H-KKKG[hCys]IPRGDTFR[Dab]-OH; linker 5-14 via X2) | A (The residual rate of the cyclic peptide is 70% or more.) | 
8 | 50 to 100 |  | CC[C@H](C)[C@@H]1NC(=O)[C@@H](NC(=O)[C@H](C)NC(=O)[C@H](CCCCN)NC(=O)[C@H](CCCCN)NC(=O)[C@@H](N)CCCCN)CCSCC(=O)NCC[C@@H](C(=O)N[C@@H](C)C(=O)O)NC(=O)[C@H](CCCNC(=N)N)NC(=O)[C@H](Cc2ccccc2)NC(=O)[C@H]([C@@H](C)O)NC(=O)[C@H](CC(=O)O)NC(=O)CNC(=O)[C@H](CCCNC(=N)N)NC(=O)[C@H]([C@@H](C)O)NC1=O [Cyclic peptide 76, KKKA-(Hcy)-ITRGDTFR(Dab(acetyl))A] (H-KKKA[hCys]ITRGDTFR[Dab]A-OH; linker 5-14 via X2) | A (The residual rate of the cyclic peptide is 70% or more.) | 
9 |  | < 50 | CC(C)[C@@H]1NC(=O)[C@@H](NC(=O)[C@H](CCCCN)NC(=O)[C@H](CCCCN)NC(=O)[C@@H](N)CCCCN)CCSCC(=O)NCC[C@@H](C(=O)O)NC(=O)[C@H](C)NC(=O)[C@H](Cc2ccccc2)NC(=O)[C@H]([C@@H](C)O)NC(=O)[C@H](CC(=O)O)NC(=O)CNC(=O)[C@H](CCCNC(=N)N)NC(=O)[C@@H]2CCCN2C1=O [Cyclic peptide 104, KKK-(Hcy)-VPRGDTFA(Dab(acetyl))] (H-KKK[hCys]VPRGDTFA[Dab]-OH; linker 4-13 via X2) |  | A (The residual rate of the cyclic peptide is 70% or more.)
